{
  "source": "patent US12702677B2",
  "about": "(priority 2008, dated 2026)",
  "key": {"[1]": {"test_system": "matrix metalloproteinase 9 (MMP-9) expression", "experiment": "Quantikine Human MMP-9 (total) immunoassay, MMP-9 expression in influenza-A-infected Vero cells", "format": "cell-based, African Green Monkey", "settings": "influenza A-infected Vero cell supernatants, FIGS. 5 and 6", "description": "A Quantikine Human MMP-9 (total) Immunoassay Assay, R&D Systems, was used to quantify expression of MMP-9 in infected cells according to the manufacturer's protocol, which is incorporated herein by reference.\nVero cells were plated at 1e^5 cells/mL in a 100 uL volume in tissue culture treated 96 well plates. The following day cells were infected with virus at a multiplicity of infection of 10 and viral activity was measured. For testing compounds, cells were preincubated with compound 1 hr prior to infection. After overnight incubation, the cells were harvested, lysed, and supernatants were subjected to assay.\nThis MMP-9 assay employs the quantitative sandwich enzyme immunoassay technique. A monoclonal antibody specific for MMP-9 has been pre-coated onto a microplate. Standards and samples are pipetted into the wells, and MMP-9 is bound by the immobilized antibody. After washing away unbound substances, an enzyme-linked polyclonal antibody specific for MMP-9 is added to the wells. Following a wash to remove unbound antibody-enzyme reagent, a substrate solution is added to the wells and color develops in proportion to the amount of total MMP-9 (pro and/or active) bound in the initial step. The color development is stopped and the intensity of the color is measured.\nTest formulations are shown in Example 5, Table 1. […]"}, "A or B influenza virus": {"test_system": "A or B influenza virus", "settings": "started during the first 48 hours after onset of symptoms; cited from earlier work"}, "[2]": {"settings": "adults; cited from earlier work"}, "[3]": {"settings": "animal studies, substantially high doses; cited from earlier work"}},
  "data": [
    {"smiles": "CCOC(=O)C1=C[C@@H](OC(CC)CC)[C@H](NC(C)=O)[C@@H](N)C1", "note": "[Formula T, oseltamivir phosphate]", "values": [
      {"measurement": "inhibition of expression of MMP-9", "setting": "[1]", "result": "pronounced dose-dependent inhibition of expression of MMP-9"},
      {"measurement": "inhibition of expression of MMP-9", "setting": "[1]; listed as Tamiflu®", "result": "inhibits expression of MMP-9"},
      {"measurement": "reduction of the duration of a typical seven day illness", "setting": "A or B influenza virus", "result": "about one"}
    ]},
    {"smiles": "CC(=O)N[C@H]1[C@H]([C@H](O)[C@H](O)CO)OC(C(=O)O)=C[C@@H]1N=C(N)N", "note": "[Relenza®, zanamivir]", "values": [
      {"measurement": "reduction of the duration of a typical seven day illness", "setting": "A or B influenza virus", "result": "about one"}
    ]},
    {"smiles": "Cc1ncc(CO)c(CO)c1O", "note": "[Vitamin B6, Pyridoxine]", "values": [
      {"measurement": "safe intake", "setting": "[2]", "result": "up to 200 mg per day"}
    ]},
    {"smiles": "CC(N)C12CC3CC(CC(C3)C1)C2", "note": "(stereo not drawn) [rimantadine]", "values": [
      {"measurement": "teratogenicity and embryotoxicity", "setting": "[3]", "result": "teratogenic and embryotoxic"}
    ]}
  ]
}
